Assay results reported in paper PMC6364417, “Kinase inhibitor library screening identifies synergistic drug combinations effective in sensitive and resistant melanoma cells” (Journal of Experimental & Clinical Cancer Research : CR, 2019).

Key:
Assay in all cases: Kinase inhibitor library screening, PrestoBlue cell viability, 1 or 10 μM, 72 h
[1] = test system: 501Mel-GP cells (Dabrafenib-resistant); conditions: 72 h; for Cell viability in kinase inhibitor library screening, 501Mel GP, 1μΜ / Cell viability in kinase inhibitor library screening, 501Mel GP, 10μΜ: in %; for Cell viability in kinase inhibitor library screening, 501Mel GP, 1μΜ / Cell viability in kinase inhibitor library screening, 501Mel GP, 10μΜ / cell viability (kinase inhibitor library screening): 501Mel GP; for viability at 1 µM / viability at 10 µM: Homo sapiens; for viability at 1 µM: read-out: cell viability, 501Mel GP, 1μΜ; for viability at 10 µM: read-out: cell viability, 501Mel GP, 10μΜ
Experimental: (§1) After 72 h of treatment, cell viability was assessed using the PrestoBlue Cell Viability Reagent (ThermoFisher Scientific). Measurements were performed with the CLARIOstar Monochromator microplate reader (BMG Labtech).
(§2) Kinase inhibitor library screening. […] Each cell line was treated in its sensitive form (parental), and also as 2 resistant derivatives, which were made resistant to either Vemurafenib (XP) or Dabrafenib (GP). Drugs were added at 2 different concentrations, 1 and 10 μM, for 72 h and cell viability was assessed using the PrestoBlue Cell Viability assay. Results are depicted as % viability compared to untreated cells. Each cell line was analyzed at least in duplicate. […] (XLSX 95 kb)

[2] = test system: 501Mel-XP cells (Vemurafenib-resistant); conditions: 72 h; for Cell viability in kinase inhibitor library screening, 501Mel XP, 1μΜ / Cell viability in kinase inhibitor library screening, 501Mel XP, 10μΜ: in %; for Cell viability in kinase inhibitor library screening, 501Mel XP, 1μΜ / Cell viability in kinase inhibitor library screening, 501Mel XP, 10μΜ / cell viability (kinase inhibitor library screening): 501Mel XP; for viability at 1 µM / viability at 10 µM: Homo sapiens; for viability at 1 µM: read-out: cell viability, 501Mel XP, 1μΜ; for viability at 10 µM: read-out: cell viability, 501Mel XP, 10μΜ
Experimental: as §1, §2

[3] = test system: A375 cells (parental); conditions: for Cell viability in kinase inhibitor library screening, A375 Parental, 10μΜ / Cell viability in kinase inhibitor library screening, A375 Parental, 1μΜ / cell viability (kinase inhibitor library screening): 72 h, A375 Parental; for viability at 1 µM / viability at 10 µM: Homo sapiens, A-375, 72 h; for viability at 1 µM: read-out: cell viability, A375 Parental, 1μΜ; for viability at 10 µM: read-out: cell viability, A375 Parental, 10μΜ
Experimental: as §1, §2

[4] = test system: A375-XP cells (Vemurafenib-resistant); conditions: for Cell viability in kinase inhibitor library screening, A375 XP, 1μΜ / Cell viability in kinase inhibitor library screening, A375 XP, 10μΜ / cell viability (kinase inhibitor library screening): 72 h, A375 XP; for viability at 1 µM / viability at 10 µM: Homo sapiens, A-375, 72 h; for viability at 1 µM: read-out: cell viability, A375 XP, 1μΜ; for viability at 10 µM: read-out: cell viability, A375 XP, 10μΜ
Experimental: as §1, §2

[5] = test system: 501Mel cells (parental); conditions: 72 h; for Cell viability in kinase inhibitor library screening, 501Mel Parental, 1μΜ / Cell viability in kinase inhibitor library screening, 501Mel Parental, 10μΜ: in %; for Cell viability in kinase inhibitor library screening, 501Mel Parental, 1μΜ / Cell viability in kinase inhibitor library screening, 501Mel Parental, 10μΜ / cell viability (kinase inhibitor library screening): 501Mel Parental; for viability at 1 µM / viability at 10 µM: Homo sapiens; for viability at 1 µM: read-out: cell viability, 501Mel Parental, 1μΜ; for viability at 10 µM: read-out: cell viability, 501Mel Parental, 10μΜ
Experimental: as §1, §2

[6] = test system: A375-GP cells (Dabrafenib-resistant); conditions: for Cell viability in kinase inhibitor library screening, A375 GP, 1μΜ / Cell viability in kinase inhibitor library screening, A375 GP, 10μΜ / cell viability (kinase inhibitor library screening): 72 h, A375 GP; for viability at 1 µM / viability at 10 µM: Homo sapiens, A-375, 72 h; for viability at 1 µM: read-out: cell viability, A375 GP, 1μΜ; for viability at 10 µM: read-out: cell viability, A375 GP, 10μΜ
Experimental: as §1, §2

[7] = test system: IGR37-XP cells (Vemurafenib-resistant); conditions: for Cell viability in kinase inhibitor library screening, IGR37 XP, 10μΜ / Cell viability in kinase inhibitor library screening, IGR37 XP, 1μΜ / cell viability (kinase inhibitor library screening): 72 h, IGR37 XP; for Cell viability in kinase inhibitor library screening, IGR37 XP, 1μΜ: in %; for viability at 1 µM / viability at 10 µM: Homo sapiens, IGR-37, 72 h; for viability at 1 µM: read-out: cell viability, IGR37 XP, 1μΜ; for viability at 10 µM: read-out: cell viability, IGR37 XP, 10μΜ
Experimental: as §1, §2

[8] = test system: IGR37 cells (parental); conditions: for viability at 1 µM / viability at 10 µM: Homo sapiens, IGR-37, 72 h; for viability at 1 µM: read-out: cell viability, IGR37 Parental, 1μΜ; for viability at 10 µM: read-out: cell viability, IGR37 Parental, 10μΜ
Experimental: as §1, §2

[9] = test system: IGR37-GP cells (Dabrafenib-resistant); conditions: for Cell viability in kinase inhibitor library screening, IGR37 GP, 10μΜ / Cell viability in kinase inhibitor library screening, IGR37 GP, 1μΜ / cell viability (kinase inhibitor library screening): 72 h, IGR37 GP; for Cell viability in kinase inhibitor library screening, IGR37 GP, 1μΜ: in %; for viability at 1 µM / viability at 10 µM: Homo sapiens, IGR-37, 72 h; for viability at 1 µM: read-out: cell viability, IGR37 GP, 1μΜ; for viability at 10 µM: read-out: cell viability, IGR37 GP, 10μΜ
Experimental: as §1, §2

[10] = IGR37 Parental, 10μΜ, 72 h, in %

| SMILES | Cell viability in kinase inhibitor library screening, 501Mel GP, 1μΜ ([1]; 1μΜ) | Cell viability in kinase inhibitor library screening, 501Mel GP, 10μΜ ([1]; 10μΜ) | viability at 1 µM [1] | viability at 10 µM [1] | viability at 1 µM [2] | viability at 10 µM [2] | viability at 1 µM [3] | viability at 10 µM [3] | viability at 1 µM [4] | viability at 10 µM [4] | viability at 1 µM [5] | viability at 10 µM [5] | viability at 1 µM [6] | viability at 10 µM [6] | viability at 1 µM [7] | viability at 10 µM [7] | viability at 1 µM [8] | viability at 10 µM [8] | viability at 1 µM [9] | viability at 10 µM [9] | further results |
| --- | --- | --- | --- | --- | --- | --- | --- | --- | --- | --- | --- | --- | --- | --- | --- | --- | --- | --- | --- | --- | --- |
| CNC(=O)c1cccc(-c2ccc3c(N4CCOC[C@@H]4C)nc(N4CCOC[C@@H]4C)nc3n2)c1 [AZD2014] | 28.3 | 9.6 | – | – | – | – | – | – | – | – | – | – | – | – | – | – | – | – | – | – | Cell viability in kinase inhibitor library screening, 501Mel XP, 1μΜ ([2]; 1μΜ): 21.8; Cell viability in kinase inhibitor library screening, 501Mel XP, 10μΜ ([2]; 10μΜ): 3.5; Cell viability in kinase inhibitor library screening, A375 Parental, 10μΜ ([3]; 10μΜ): 21.1; Cell viability in kinase inhibitor library screening, A375 Parental, 1μΜ ([3]; 1μΜ): 34.9; Cell viability in kinase inhibitor library screening, A375 XP, 1μΜ ([4]; 1μΜ): 29.1; Cell viability in kinase inhibitor library screening, A375 XP, 10μΜ ([4]; 10μΜ): 19.4; Cell viability in kinase inhibitor library screening, 501Mel Parental, 1μΜ ([5]; 1μΜ): 39.4; Cell viability in kinase inhibitor library screening, 501Mel Parental, 10μΜ ([5]; 10μΜ): 8.5; Cell viability in kinase inhibitor library screening, A375 GP, 1μΜ ([6]; 1μΜ): 33.7; Cell viability in kinase inhibitor library screening, A375 GP, 10μΜ ([6]; 10μΜ): 19.6; Cell viability in kinase inhibitor library screening, IGR37 XP, 10μΜ ([7]; 10μΜ): 9.4%; Cell viability in kinase inhibitor library screening, IGR37 XP, 1μΜ ([7]; 1μΜ): 49.7; Cell viability in kinase inhibitor library screening, IGR37 Parental, 10μΜ [8, 10]: 12.3; Cell viability in kinase inhibitor library screening, IGR37 GP, 10μΜ ([9]; 10μΜ): 28.2%; Cell viability in kinase inhibitor library screening, IGR37 GP, 1μΜ ([9]; 1μΜ): 63.5 |
| Cc1ncc(-c2ccnc(Nc3ccc(S(C)(=O)=O)cc3)n2)n1C(C)C [AZD5438] | – | – | – | – | – | – | – | – | – | – | – | – | – | – | – | – | – | – | – | – | cell viability (kinase inhibitor library screening) ([1]; 1μΜ): 106.0%; cell viability (kinase inhibitor library screening) ([1]; 10μΜ): 93.9%; cell viability (kinase inhibitor library screening) ([2]; 1μΜ): 99.0%; cell viability (kinase inhibitor library screening) ([2]; 10μΜ): 80.3%; cell viability (kinase inhibitor library screening) ([3]; 10μΜ): 103.7%; cell viability (kinase inhibitor library screening) ([3]; 1μΜ): 106.4%; cell viability (kinase inhibitor library screening) ([4]; 1μΜ): 105.8%; cell viability (kinase inhibitor library screening) ([4]; 10μΜ): 110.3%; cell viability (kinase inhibitor library screening) ([5]; 1μΜ): 102.8%; cell viability (kinase inhibitor library screening) ([5]; 10μΜ): 103.6%; cell viability (kinase inhibitor library screening) ([6]; 1μΜ): 99.9%; cell viability (kinase inhibitor library screening) ([6]; 10μΜ): 102.9%; cell viability (kinase inhibitor library screening) ([7]; 1μΜ): 106.4%; cell viability (kinase inhibitor library screening) ([7]; 10μΜ): 82.4%; cell viability (kinase inhibitor library screening) ([8]; IGR37 Parental, 1μΜ, 72 h): 103.3%; cell viability (kinase inhibitor library screening) ([8]; IGR37 Parental, 10μΜ, 72 h): 110.8%; cell viability (kinase inhibitor library screening) ([9]; 1μΜ): 99.3%; cell viability (kinase inhibitor library screening) ([9]; 10μΜ): 97.8% |
| Cn1cnc2c(F)c(Nc3ccc(Br)cc3Cl)c(C(=O)NOCCO)cc21 [AZD6244 (Selumetinib)] | – | – | 96.9% | 73.6% | 81.2% | 58.1% | 21.3% | 18.6% | 42.3% | 15% | 61.6% | 60.6% | 29.4% | 17.8% | 83.3% | 42.2% | 40.2% | 36.6% | 92% | 62.7% | – |
| COc1ccc(-c2ccc3c(N4CCOC[C@@H]4C)nc(N4CCOC[C@@H]4C)nc3n2)cc1CO [AZD8055] | 22.1 | 11.9 | – | – | – | – | – | – | – | – | – | – | – | – | – | – | – | – | – | – | Cell viability in kinase inhibitor library screening, 501Mel XP, 1μΜ ([2]; 1μΜ): 13.9; Cell viability in kinase inhibitor library screening, 501Mel XP, 10μΜ ([2]; 10μΜ): 4.6; Cell viability in kinase inhibitor library screening, A375 Parental, 10μΜ ([3]; 10μΜ): 19.2; Cell viability in kinase inhibitor library screening, A375 Parental, 1μΜ ([3]; 1μΜ): 23.1; Cell viability in kinase inhibitor library screening, A375 XP, 1μΜ ([4]; 1μΜ): 21.6; Cell viability in kinase inhibitor library screening, A375 XP, 10μΜ ([4]; 10μΜ): 17.3; Cell viability in kinase inhibitor library screening, 501Mel Parental, 1μΜ ([5]; 1μΜ): 17.3; Cell viability in kinase inhibitor library screening, 501Mel Parental, 10μΜ ([5]; 10μΜ): 8.1; Cell viability in kinase inhibitor library screening, A375 GP, 1μΜ ([6]; 1μΜ): 25.5; Cell viability in kinase inhibitor library screening, A375 GP, 10μΜ ([6]; 10μΜ): 16.6; Cell viability in kinase inhibitor library screening, IGR37 XP, 10μΜ ([7]; 10μΜ): 12.5%; Cell viability in kinase inhibitor library screening, IGR37 XP, 1μΜ ([7]; 1μΜ): 34.7; Cell viability in kinase inhibitor library screening, IGR37 Parental, 1μΜ ([8]; IGR37 Parental, 1μΜ, 72 h, in %): 29.8; Cell viability in kinase inhibitor library screening, IGR37 Parental, 10μΜ [8, 10]: 25.2; Cell viability in kinase inhibitor library screening, IGR37 GP, 10μΜ ([9]; 10μΜ): 29.5%; Cell viability in kinase inhibitor library screening, IGR37 GP, 1μΜ ([9]; 1μΜ): 45.1 |
| CNC(=O)CN1CCC(Oc2cc3c(Nc4cccc(Cl)c4F)ncnc3cc2OC)CC1 [AZD8931] | – | – | 100% | 79.7% | 94.5% | 68.3% | 96.7% | 83.8% | 96.5% | 86% | 90.5% | 86% | 103% | 74.8% | 71.9% | 50% | 96.3% | 98.9% | 90.4% | 78% | – |
| CN(C)C/C=C/C(=O)Nc1cc2c(Nc3ccc(F)c(Cl)c3)ncnc2cc1O[C@H]1CCOC1 [Afatinib (BIBW2992)] | – | – | 98.8% | 6.2% | 88.6% | -0.4% | 100% | 13.6% | 102% | 4.1% | 102% | 1.5% | 94.1% | 12.6% | 94.7% | 10% | 103% | 44.5% | 96.9% | 20.9% | – |
